Results published in US8133884B2, “Compounds for the treatment of hepatitis C” (priority 2008, dated 2012).

Legend:
HCV replicon = HCV replicon assay (FRET or luciferase reporter); type: cell-based; conditions: Hepatitis C virus, one of the methods described
Outline: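 HCV replicon Huh-7 cells were exposed to titrated compound at 37 °C, with Alamar blue as a cytotoxicity read. Replication was measured by NS3 cleavage of an EDANS/DABCYL FRET peptide (20 μM, 340/490 nm kinetic read) or by Renilla luciferase, with background from high-dose protease inhibitor wells. EC50 was taken as 50% signal reduction; a 384-well format used 3.0×10^3 cells/well, 0.5% DMSO and 3 days.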

HCV NS5B = molecular target: T1, HCV NS5B (Hepatitis C virus genotype 1b, UniProt Q9WMX2); assay: Modified HCV NS5B RdRp enzyme assay (preincubation protocol); type: biochemical
T1 construct: The protein was expressed with an 18 amino acid C-terminal truncation to enhance the solubility; made in house; host or cells: E. coli BL21(DE3)
T1 sequence (Q9WMX2 2420-2992): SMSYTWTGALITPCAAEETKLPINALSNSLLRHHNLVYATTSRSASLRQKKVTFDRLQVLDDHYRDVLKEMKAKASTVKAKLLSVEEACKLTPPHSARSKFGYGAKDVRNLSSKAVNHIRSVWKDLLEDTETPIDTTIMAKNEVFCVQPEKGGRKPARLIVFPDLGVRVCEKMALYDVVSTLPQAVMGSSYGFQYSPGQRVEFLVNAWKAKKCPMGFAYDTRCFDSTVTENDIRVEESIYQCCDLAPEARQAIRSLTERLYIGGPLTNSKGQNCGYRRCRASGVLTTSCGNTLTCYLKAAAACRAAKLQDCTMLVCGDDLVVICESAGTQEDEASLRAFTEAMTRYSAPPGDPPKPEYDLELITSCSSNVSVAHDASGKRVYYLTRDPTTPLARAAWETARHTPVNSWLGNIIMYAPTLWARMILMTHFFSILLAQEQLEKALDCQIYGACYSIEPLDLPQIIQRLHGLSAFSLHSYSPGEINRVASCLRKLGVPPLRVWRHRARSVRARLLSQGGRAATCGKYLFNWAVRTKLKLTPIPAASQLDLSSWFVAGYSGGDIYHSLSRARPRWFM
Outline: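 C-terminally truncated (Δ18) genotype 1b NS5B from E. coli, 14 nM, added to compound first, then polyA template (0.2 nM), 3H-UTP (0.29 μM) and oligo-dT12 primer precaptured on streptavidin SPA beads (20 nM). Run 4 h at 30° C, pH 7.5, 2% DMSO; IC50 fitted from seven concentrations.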

SMILES | EC50 (HCV replicon; class symbol) | IC50 (HCV NS5B; class symbol) | EC50 (HCV replicon; exact value) | IC50 (HCV NS5B; exact value)
COc1ccc2c(c1)C=C(c1c(C(=O)N3C4CCCC3COC4)cnn1C1CCN(C)CC1)Cn1c-2c(C2CCCCC2)c2ccc(C(=O)NS(=O)(=O)C(C)C)cc21 | 1.7 to 500 nM | 1.7 to 500 nM | – | –
CCOC(=O)c1cnn(-c2ccncc2C)c1C1=Cc2cc(OC)ccc2-c2c(C3CCCCC3)c3ccc(C(=O)O)cc3n2C1 | 1.7 to 500 nM | 1.7 to 500 nM | – | –
COc1ccc2c(c1)C=C(c1c(C(=O)N3CC4CCC(C3)N4C)c(C)nn1C1CCC1)Cn1c-2c(C2CCCCC2)c2ccc(C(=O)NS(=O)(=O)C(C)C)cc21 | 1.7 to 500 nM | 1.7 to 500 nM | – | –
COc1ccc2c(c1)C=C(c1c(C(=O)N3C[C@@H]4C[C@H]3CN4C)c(C)nn1C1CCC1)Cn1c-2c(C2CCCCC2)c2ccc(C(=O)NS(=O)(=O)C(C)C)cc21 | 1.7 to 500 nM | 1.7 to 500 nM | – | –
COc1ccc2c(c1)C=C(c1c(C(=O)N3C[C@@H]4C[C@H]3CN4CC3CC3)c(C)nn1C1CCC1)Cn1c-2c(C2CCCCC2)c2ccc(C(=O)NS(=O)(=O)C(C)C)cc21 | 1.7 to 500 nM | 1.7 to 500 nM | – | –
CCN1C[C@H]2C[C@@H]1CN2C(=O)c1cnn(C2CCC2)c1C1=Cc2cc(OC)ccc2-c2c(C3CCCCC3)c3ccc(C(=O)NS(=O)(=O)C(C)C)cc3n2C1 | 1.7 to 500 nM | 1.7 to 500 nM | – | –
COc1ccc2c(c1)C=C(c1c(C(=O)N3CC[C@H]4C[C@H]43)cnn1C1CCC1)Cn1c-2c(C2CCCCC2)c2ccc(C(=O)NS(=O)(=O)C(C)C)cc21 | 1.7 to 500 nM | 1.7 to 500 nM | – | –
COc1ccc2c(c1)C=C(c1c(C(=O)N3CCC(F)(F)CC3)cnn1C1CCC1)Cn1c-2c(C2CCCCC2)c2ccc(C(=O)NS(=O)(=O)C(C)C)cc21 | 1.7 to 500 nM | 1.7 to 500 nM | – | –
COc1ccc2c(c1)C=C(c1c(C(=O)N3C4CCC3CC4)cnn1C1CCC1)Cn1c-2c(C2CCCCC2)c2ccc(C(=O)NS(=O)(=O)C(C)C)cc21 | 1.7 to 500 nM | 1.7 to 500 nM | – | –
COCCN(CCOC)C(=O)c1cnn(C2CCC2)c1C1=Cc2cc(OC)ccc2-c2c(C3CCCCC3)c3ccc(C(=O)NS(=O)(=O)C(C)C)cc3n2C1 | 1.7 to 500 nM | 1.7 to 500 nM | – | –
COCCN(C(=O)c1cnn(C2CCC2)c1C1=Cc2cc(OC)ccc2-c2c(C3CCCCC3)c3ccc(C(=O)NS(=O)(=O)C(C)C)cc3n2C1)C(C)C | 1.7 to 500 nM | 1.7 to 500 nM | – | –
COc1ccc2c(c1)C=C(c1c(C(=O)N3CC(F)(F)C3)cnn1C1CCC1)Cn1c-2c(C2CCCCC2)c2ccc(C(=O)NS(=O)(=O)C(C)C)cc21 | 1.7 to 500 nM | 1.7 to 500 nM | – | –
COc1ccc2c(c1)C=C(c1c(C(=O)N3C4CCCCC3CCC4)cnn1C1CCC1)Cn1c-2c(C2CCCCC2)c2ccc(C(=O)NS(=O)(=O)C(C)C)cc21 | 1.7 to 500 nM | 1.7 to 500 nM | 400 nM | 7 nM
COc1ccc2c(c1)C=C(c1c(C(=O)N3CC4CCC3C4)cnn1C1CCC1)Cn1c-2c(C2CCCCC2)c2ccc(C(=O)NS(=O)(=O)C(C)C)cc21 (stereo not shown) | 1.7 to 500 nM | 1.7 to 500 nM | – | –
COc1ccc2c(c1)C=C(c1c(C(=O)N3C[C@@H]4C[C@H]3CN4)cnn1C1CCC1)Cn1c-2c(C2CCCCC2)c2ccc(C(=O)NS(=O)(=O)C(C)C)cc21 | 1.7 to 500 nM | 1.7 to 500 nM | – | –
COc1ccc2c(c1)C=C(c1ncn(C3CC3)c1C(=O)N1CCOCC1)Cn1c-2c(C2CCCCC2)c2ccc(C(=O)NS(=O)(=O)C(C)C)cc21 | 1.7 to 500 nM | 1.7 to 500 nM | 8.8 nM | 2.4 nM
COc1ccc2c(c1)C=C(c1ncn(C3CCC3)c1C(=O)N1CCOCC1)Cn1c-2c(C2CCCCC2)c2ccc(C(=O)NS(=O)(=O)C(C)C)cc21 | 1.7 to 500 nM | 1.7 to 500 nM | 9 nM | 1.8 nM
CCN1CC2CC1CN2C(=O)c1c(C2=Cc3cc(OC)ccc3-c3c(C4CCCCC4)c4ccc(C(=O)NS(=O)(=O)C(C)C)cc4n3C2)ncn1C1CCC1 (stereo not shown) | 1.7 to 500 nM | 1.7 to 500 nM | – | –
COc1ccc2c(c1)C=C(c1ncn(C3CCC3)c1C(=O)N1C[C@@H](C)O[C@@H](C)C1)Cn1c-2c(C2CCCCC2)c2ccc(C(=O)NS(=O)(=O)C(C)C)cc21 | 1.7 to 500 nM | 1.7 to 500 nM | – | –
COc1ccc2c(c1)C=C(c1c(C(=O)N3C[C@@H]4C[C@H]3CN4C)cnn1C1CCC1)Cn1c-2c(C2CCCCC2)c2ccc(C(=O)NS(=O)(=O)C(C)C)cc21 | 1.7 to 500 nM | 1.7 to 500 nM | – | –
COc1ccc2c(c1)C=C(c1c(C(=O)N3C[C@@H]4C[C@H]3CN4)c(C)nn1C1CCC1)Cn1c-2c(C2CCCCC2)c2ccc(C(=O)NS(=O)(=O)C(C)C)cc21 | 1.7 to 500 nM | < 1.7 nM | – | –
COC[C@H]1CN(C(=O)c2cnn(C3CCC3)c2C2=Cc3cc(OC)ccc3-c3c(C4CCCCC4)c4ccc(C(=O)NS(=O)(=O)C(C)C)cc4n3C2)CCO1 | 1.7 to 500 nM | < 1.7 nM | 10 nM | < 1.7 nM
